Measurements reported in US9417245B2, “Porphyrinic compounds for use in flow cytometry” (North Carolina State University, priority 2005, dated 2016).
Values joined by “and” are separate entries in the source; they are usually repeats but may differ in a detail not shown here. Identical values can stand only once. Like-named read-outs stand apart in the source and are kept apart here.

Key:
[1] = Absorption spectroscopy of chlorins (B and Qy bands, log ε, B/Qy ratio); format: physicochemical; settings: for ΔvQy: Example 2 Table 2, redshift relative to the parent chlorin (ZnC or Zn-M^10)
Excerpt: (§1) The spectral properties of interest in the chlorins include the position of the long-wavelength Qy transition, the intensity of the Qy transition, and the fluorescence quantum yield of the chlorin. The intensity of the Qy transition can be assessed by the measured molar absorption coefficient; however, comparisons of such values are somewhat unreliable given the experimental variability encountered upon handling small quantities of materials. A better comparison is achieved by examination of the ratio of the intensities of the B and Qy bands for a given compound (B/Qy ratio), which is determined simply by absorption spectroscopy without requiring determination of the molar absorption coefficient. For a wide variety of applications, bathochromic and hyperchromic shifts of the Qy band are desired (i.e., shifted to longer wavelength and intensified), thereby affording strong absorption in the deep-red region.
^1H NMR (400 MHz) and ^13C NMR (75 MHz) spectra were collected at room temperature in CDCl3. Absorption spectra were obtained in toluene at room temperature. Chlorins were analyzed by laser desorption mass spectrometry (LD-MS) in the absence of a matrix. Fast atom bombardment mass spectrometry (FAB-MS) data are reported for the molecule ion or protonated molecule ion. Melting points are uncorrected. All commercially available materials were used as received. All palladium-coupling reactions were carried out using standard Schlenk-line techniques.
as §1, with “increased” for “intensified), thereby affording strong absorption”, “intensity).” for “the deep-red region.”
^1H NMR (400 MHz) and ^13C NMR (75 MHz) spectra were collected at room temperature in CDCl3 unless noted otherwise. Absorption spectra were obtained in toluene at room temperature. Chlorins were analyzed by laser desorption mass spectrometry (LD-MS) in the absence of a matrix. Metalation of free base chlorins was monitored by fluorescence spectroscopy. Melting points are uncorrected. All commercially available materials were used as received.

[2] = Fluorescence spectroscopy (emission bands, fluorescence quantum yield); format: physicochemical; settings: in toluene at room temperature
Procedure: The fluorescence spectra and fluorescence quantum yields reported herein were collected in toluene at room temperature. Measurements of fluorescence quantum yield (Φf) were carried out using chlorin Zn-11 (Φf=0.065) as a standard.^16

[3] = literature, cited from earlier work; for Qy band position: FIG. 3, natural pigments, in diethyl ether

| Compound | Qy band position ([1]; in toluene at room temperature) | ΔvQy ([1]; toluene) | Qy band position [3] | further results |
| --- | --- | --- | --- | --- |
| Cc1ccc(-c2c3nc(c(-c4c(C)cc(C)cc4C)c4cc5c([nH]4)c(c4nc(cc6ccc2[nH]6)C(C)(C)C4)CC5=O)C=C3)cc1 [Compound 2, 18,18-Dimethyl-10-mesityl-13^1-oxo-5-p-tolylphorbine] | 660 nm | – | – | – |
| CC(=O)c1cc2[n]3c1=CC1=NC(=Cc4ccc([n]4[Zn]3)C(c3ccc(C)cc3)=C3C=CC(=N3)C=2c2c(C)cc(C)cc2C)C(C)(C)C1 [Zn-1, Zn(II)-13-Acetyl-17,18-dihydro-10-mesityl-18,18-dimethyl-5-p-tolylporphyrin] | 632 nm and 635 nm | – | – | B band position ([1]; in toluene at room temperature): 424 nm; B/Qy band intensity ratio ([1]; in toluene at room temperature): 2.9; log ε (Qy band) ([1]; molar absorption coefficient comparison, toluene): 4.75; strong Qy(0,0) / dominant fluorescence band [2]: around 641 nm |
| CC(=O)c1cc2[n]3c1C=C1CC(C)(C)C(=N1)C=c1cc(C#C[Si](C(C)C)(C(C)C)C(C)C)c([n]1[Zn]3)=CC1=NC(=C2c2c(C)cc(C)cc2C)C=C1 [ZnC-E^3M^10A^13, Zn(II)-13-Acetyl-3-[2-(triisopropylsilyl)ethynyl]-17,18-dihydro-10-mesityl-18,18-dimethylporphyrin] | 652 nm | 1160 cm⁻¹ | – | – |
| Cc1cc(C)c(C2=c3cc(C#C[Si](C(C)C)(C(C)C)C(C)C)c4[n]3[Zn][n]3c(cc(C#C[Si](C(C)C)(C(C)C)C(C)C)c3C=C3C=CC2=N3)C=C2N=C(C=4)CC2(C)C)c(C)c1 [ZnC-E^3M^10E^13, Zn(II)-3,13-Bis[2-(triisopropylsilyl)ethynyl]-17,18-dihydro-10-mesityl-18,18-dimethylporphyrin] | 646 nm | 1020 cm⁻¹ | – | – |
| CC(=O)c1cc2[n]3c1C=C1CC(C)(C)C(=N1)C=c1ccc([n]1[Zn]3)=CC1=NC(=C2c2c(C)cc(C)cc2C)C=C1 [ZnC-M^10A^13, Zn(II)-13-Acetyl-17,18-dihydro-10-mesityl-18,18-dimethylporphyrin] | 632 nm | 680 cm⁻¹ | – | B/Qy band intensity ratio ([1]; in toluene at room temperature): 2.2 |
| Cc1cc(C)c(C2=c3cc(C#C[Si](C(C)C)(C(C)C)C(C)C)c4[n]3[Zn][n]3c(ccc3C=C3N=C(C=4)CC3(C)C)C=C3C=CC2=N3)c(C)c1 [ZnC-M^10E^13, Zn(II)-13-[2-(Triisopropylsilyl)ethynyl]-17,18-dihydro-10-mesityl-18,18-dimethylporphyrin] | 626 nm | 530 cm⁻¹ | – | – |
| C=Cc1cc2[n]3c1C=C1C=CC(=N1)C(c1c(C)cc(C)cc1C)=c1ccc([n]1[Zn]3)=CC1=NC(=C2)C(C)(C)C1 [ZnC-V^3M^10] | 621 nm | 400 cm⁻¹ | – | – |
| C=Cc1c(C)c2cc3nc(c4c5[n-]c(cc6nc(cc1[n-]2)C(C)=C6CC)c(C)c5C(=O)[C@@H]4C(=O)OC)[C@@H](CCC(=O)OC/C=C(\C)CCC[C@H](C)CCC[C@H](C)CCCC(C)C)[C@@H]3C.[Mg+2] [chlorophyll a] | – | – | 662 nm | B band position ([3]; chlorophyll a): 430 nm; B/Qy band intensity ratio ([3]; chlorophyll a): 1.3 |
| C=Cc1c(C)c2cc3nc(c4c5[n-]c(cc6nc(cc1[n-]2)C(C=O)=C6CC)c(C)c5C(=O)[C@@H]4C(=O)OC)[C@@H](CCC(=O)OC/C=C(\C)CCC[C@H](C)CCC[C@H](C)CCCC(C)C)[C@@H]3C.[Mg+2] [chlorophyll b] | – | – | 644 nm and 642 nm | – |
| pheophytin a | – | – | 667 nm | – |
